In one assay the test system is K562 cells. In words: K562 cell growth inhibition assay. The assay is classed as cell-based. Conditions: human chronic myeloid leukemia K562 cells, 72 h, cell count vs untreated control. On the procedure: K562 Cell Growth Inhibition Assay
K562 cells, a human myelogenous leukemia cell line, were seeded into a 24 wells tissue culture plate (Falcon 3047) (10000/well) in the presence of increasing concentrations of the compounds. After 72 h, cells were harvested and were counted using a cell counter (Coulter Counter-ZM). The percent of inhibition was evaluated in respect to the untreated control cells.
The inhibitory activity data for a representative group of compounds according to the present invention, obtained both in the in-vitro p45 v-abl kinase assay and in the in-vivo human chronic myeloid leukemia K562 cell growth inhibition assay described above, are set out in following Table 1.

In assay [1] the target is p45 v-abl tyrosine kinase. In words: in-vitro p45 v-abl kinase assay ((Val^5)-Angiotension II phosphorylation). The conditions noted are these: ATP 50 μM, fixed peptide concentration, 40 ng abl-kinase, pH 8.0, 30° C.; read-out: Inhibition of p45 kinase, IC50 v-abl. The class given is biochemical, Abelson murine leukaemia virus. The procedure: p45 v-abl Kinase Purification
The enzyme used in our test was the p45 v-abl tyrosine kinase which represents the catalytic domain of the Abelson tyrosine kinase (isolated from the Abelson murine leukaemia virus). The p45 v-abl kinase was produced and isolated as described by Wang et al. in J. Biol. Chem. 260, 64 (1985) and by Ferguson et al. in J. Biol. Chem. 260, 3652 (1985) and in Biochem. J. 257, 321 (1989).
(Val^5)-Angiotension II phosphorylation was performed by incubation with 40 ng of purified abl-kinase and (γ-^32 p)-ATP, in 50 μl of buffer containing Tris-HCl 25 mM, pH 8.0, MgCl2 10 mM and dithiothreitol 0.1 mM (kinase buffer). The reaction mixture was incubated for the indicated time at 30° C. and the reaction stopped by adding 50 μl of 5% trichloroacetic acid. After a brief incubation on ice, tubes were centrifuged. The supernatants were spotted on phosphocellulose paper squares (Whatman P-81) and washed extensively in acetic acid. The radioactivity bound to dried phosphocellulose squares was measured in a liquid scintillation counter. IC50 values were calculated from triplicated determinations of each experimental point. Each inhibitor was tested at concentrations ranging from […] in the presence of fixed concentrations of peptide (2 Mm) and ATP (50 μM). […]

In general, IC50 refers to the concentration needed to halve the response being measured. For `COc1ccc2[nH]cc(C=C3C(=O)Nc4ccc(NC(=O)[C@H](C)NC(=O)[C@@H](N)CCC(=O)O)cc43)c2c1` [FCE 28437, 5-L-glutamyl-L-alanylamino-3-[(5'-methoxy-3'-indolyl)methylene]-2-indolinone], the IC50 is 14800 nM in the assay with K562 cells and 500 nM in assay [1].

`O=C1Nc2ccc(C(=O)CN3CCCCC3)cc2C1=Cc1c[nH]c2ccccc12` [FCE 28484, 3-(indol-3-ylmethylene)-5-(2-piperidin-1-yl-acetyl)-2-indolinone]: the IC50 with K562 cells amounted to 4820 nM; in assay [1], 780 nM.

Values taken from patent US5849710A, “Substituted indolylmethylene-oxindole analogues as tyrosine kinase inhibitors” (Pharmacia & Upjohn S.p.A., priority 1995, dated 1998).
